Experiments:
Experiment in all cases: greenhouse post-emergence herbicidal test
[1] = test system: ABUTH; format: in vivo, Abutilon theophrast; design: key to herbicidal activity against ABUTH found: rating on a scale from 0 to 100; conditions: post emergence
Outline: (§1)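 Visual rating at 20 days after treatment used a 0–100 scale, where 100 meant no emergence or complete destruction of above-ground parts. Seedlings of 1–15 cm, grown at species-dependent 10-25° C or 20-35° C, received water-based spray liquor containing the formulated components.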

[2] = test system: ALOMY; format: in vivo, Alopecurus myosuroides; design: key to herbicidal activity against ALOMY found: rating on a scale from 0 to 100; conditions: post emergence
Outline: as §1

[3] = test system: AMBEL; format: in vivo, Ambrosia artemisiifolia; design: key: rating on a scale from 0 to 100
Description: (§2) The culture containers used were plastic pots containing medium loamy sand with approximately 4.6% of humus and 69.9% sand as substrate. The seeds of the test plants were sown separately for each species.
(§3) For the post-emergence treatment, the test plants were grown to a plant height of from 1 to 15 cm, depending on the plant habit, and only then treated with the active compounds which had been suspended or emulsified in water. To this end, the test plants were either sown directly, and grown in the same containers, or they were first grown separately as seedlings and transplanted into the test containers a few days prior to treatment.
(§4) Depending on the species, the plants were kept at 10-25° C. and 20-35° C., respectively.
(§5) The test period extended over 1 to 3 weeks. During this time, the plants were tended and their response to the individual treatments was evaluated 20 days after treatment except mentioned otherwise.
(§6) Evaluation was carried out using a scale from 0 to 100. 100 means no emergence of the plants, or complete destruction of at least the above-ground parts, and 0 means no damage or normal course of growth.
(§7) The respective stated components A and B, and, if appropriate, C, were formulated as a 10% by weight strength emulsion concentrate and, with addition of the amount of solvent system, introduced into the spray liquor used for applying the active compound. In the examples, the solvent used was water.
(§8) In the examples below, using the method of S. R. Colby (1967) “Calculating synergistic and antagonistic responses of herbicide combinations”, Weeds 15, p. 22 ff., the value E, which is expected if the activity of the individual active compounds is only additive, was calculated. E=X+Y−(X·Y/100)

[4] = test system: APESV; format: in vivo, Apera spica-venti; design: key to herbicidal activity against APESV found: rating on a scale from 0 to 100; conditions: post emergence; for herbicidal activity against APESV found: single active
Outline: as §1

[5] = test system: IPOHE; format: in vivo, Ipomoea hederacea; design: key to herbicidal activity against IPOHE found: rating on a scale from 0 to 100; conditions: post emergence
Outline: (§9)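 Herbicidal activity scored on a 0 (no damage) to 100 (plants destroyed) scale, usually 20 days after water-based spraying of 1–15 cm plants grown in loamy sand at 10-25 °C or 20-35 °C depending on species. Components were applied from 10% emulsion concentrates; Colby's E=X+Y−(X·Y/100) gives the additive expectation.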

[6] = test system: MATCH; format: in vivo, Matricaria recutita; design: key to herbicidal activity against MATCH found: rating on a scale from 0 to 100; conditions: post emergence
Outline: as §1

[7] = test system: POLCO; format: in vivo, Polygonum convolvulus; design: key to herbicidal activity against POLCO found: rating on a scale from 0 to 100; conditions: post emergence
Outline: as §9

[8] = test system: ERICA; format: in vivo, Conyza canadensis; design: key to herbicidal activity against ERICA found: rating on a scale from 0 to 100; conditions: post emergence
Outline: as §1

[9] = test system: GERDI; format: in vivo, Geranium dissectum; design: key to herbicidal activity against GERDI found: rating on a scale from 0 to 100; conditions: post emergence
Outline: as §1

[10] = test system: VIOAR; format: in vivo, Viola arvensis; design: key to herbicidal activity against VIOAR found / herbicidal activity against VIOLA found: rating on a scale from 0 to 100; conditions: post emergence
Outline: as §9

[11] = test system: ECHCG; format: in vivo, Echinochloa crus-galli; design: key to herbicidal activity against ECHCG found / herbicidal activity against ECHCH found: scale 0 to 100; conditions: post emergence; I.1 31.25 g/ha, B.103 7.5 g/ha a.i.
Outline: as §1

[12] = test system: GALAP; format: in vivo, Galium aparine; design: key to herbicidal activity against GALAP found: rating on a scale from 0 to 100; conditions: post emergence
Outline: as §9

[13] = test system: KCHSC; format: in vivo, Kochia scoparia; design: key to herbicidal activity against KCHSC found: rating on a scale from 0 to 100; conditions: post emergence
Outline: as §9

[14] = test system: PAPRH; format: in vivo, Papaver rhoeas; design: key: rating on a scale from 0 to 100; conditions: B.103 15 g/ha a.i.
Description: as §2, §3, §4, §5, §6, §7, §8

[15] = test system: STEME; format: in vivo, Stellaria media; design: key: scale 0 to 100; conditions: I.1 15.62 g/ha, B.103 15 g/ha a.i.
Description: as §2, §3, §4, §5, §6, §7, §8

[16] = application rate a.i.: I.1 31.25 g/ha, B.100 (isoxaflutole) 12.5 g/ha, alone or as mixture (composition 1.100)
[17] = application rate a.i.: I.1 62.5 g/ha, B.100 (isoxaflutole) 12.5 g/ha, alone or as mixture (composition 1.100)
[18] = I.1 31.25 g/ha, B.103 15 g/ha a.i.
[19] = I.1 62.5 g/ha, B.103 7.5 g/ha a.i.
[20] = I.1 62.5 g/ha, B.103 15 g/ha a.i.
[21] = I.1 15.6 g/ha, B.103 7.5 g/ha a.i.
[22] = I.1 31.25 g/ha, B.103 7.5 g/ha a.i.

With `Cc1cnc(C2=NC(=O)C(C)(C(C)C)N2)c(C(=O)O)c1` (stereo not shown) [B.32, imazapic] the pest or weed control at 6 g/ha ([1]; Abutilon theophrasti, post-emergence, 480 h, B.32 alone 6 g/ha a.i., read-out: herbicidal activity against ABUTH found) was 85%, the pest or weed control at 3 g/ha ([2]; Alopecurus myosuroides, post-emergence, 480 h, B.32 alone 3 g/ha a.i., read-out: herbicidal activity against ALOMY found) was 25% and the “herbicidal activity against AMBEL found” value ([3]; B.32 alone 3 g/ha a.i.) was 0. For the same compound, the “herbicidal activity against AMBEL found” value ([3]; B.32 alone 6 g/ha a.i.) was 65, the pest or weed control at 3 g/ha ([4]; Apera spica-venti, post-emergence, 480 h, B.32 alone 3 g/ha a.i., read-out: herbicidal activity against APESV found) was 65% and the pest or weed control at 6 g/ha ([4]; Apera spica-venti, post-emergence, 480 h, B.32 alone 6 g/ha a.i., read-out: herbicidal activity against APESV found) was 80%. It also gave a pest or weed control at 6 g/ha ([5]; Ipomoea hederacea, post-emergence, 480 h, B.32 alone 6 g/ha a.i., read-out: herbicidal activity against IPOHE found) of 75%, a pest or weed control at 3 g/ha ([6]; Matricaria chamomilla, post-emergence, 480 h, B.32 alone 3 g/ha a.i., read-out: herbicidal activity against MATCH found) of 0% and a pest or weed control at 6 g/ha ([6]; Matricaria chamomilla, post-emergence, 480 h, B.32 alone 6 g/ha a.i., read-out: herbicidal activity against MATCH found) of 30%. For the same compound, the pest or weed control at 3 g/ha ([7]; Fallopia convolvulus, post-emergence, 480 h, B.32 alone 3 g/ha a.i., read-out: herbicidal activity against POLCO found) was 85%.
For `CS(=O)(=O)c1cc(C(F)(F)F)ccc1C(=O)c1cnoc1C1CC1` [B.100, isoxaflutole], the “herbicidal activity against AMBEL found” value [3, 16] was 45, the “herbicidal activity against AMBEL found” value [3, 17] was 45 and the “herbicidal activity against ERICA found” value [8, 16] was 80. The “herbicidal activity against ERICA found” value [8, 17] was 80, the “herbicidal activity against GERDI found” value [9, 16] was 0 and the “herbicidal activity against GERDI found” value [9, 17] was 0. The “herbicidal activity against POLCO found” value [7, 16] was 60 and the “herbicidal activity against VIOAR found” value [10, 17] was 70.
In the case of `O=C(Nc1ccc(F)cc1)c1cccc(Oc2cccc(C(F)(F)F)c2)n1` [B.103, picolinafen], the “herbicidal activity against ECHCG found” value [11] is reported as 20, the “herbicidal activity against ERICA found” value [8, 18] is reported as 65 and the “herbicidal activity against ERICA found” value [8, 19] is reported as 25. The “herbicidal activity against ERICA found” value [8, 20] was 65, the “herbicidal activity against GALAP found” value [12, 19] was 70 and the “herbicidal activity against GERDI found” value [9, 21] was 0. The “herbicidal activity against GERDI found” value [9, 22] was 0, the “herbicidal activity against GERDI found” value [9, 18] was 0 and the “herbicidal activity against GERDI found” value [9, 19] was 0. For the same compound, the “herbicidal activity against GERDI found” value [9, 20] was 0, the “herbicidal activity against IPOHE found” value [5, 21] was 40 and the “herbicidal activity against IPOHE found” value [5, 18] was 60. The “herbicidal activity against KCHSC found” value [13, 22] was 60, the “herbicidal activity against KCHSC found” value [13, 18] was 60 and the “herbicidal activity against KCHSC found” value [13, 19] was 60. For the same compound, the “herbicidal activity against KCHSC found” value [13, 20] was 60, the “herbicidal activity against PAPRH found” value ([14]; I.1 15.62 g/ha) was 70 and the “herbicidal activity against PAPRH found” value ([14]; I.1 31.25 g/ha) was 70. The “herbicidal activity against POLCO found” value [7, 21] was 40, the “herbicidal activity against POLCO found” value [7, 19] was 40 and the “herbicidal activity against POLCO found” value [7, 20] was 70. The “herbicidal activity against STEME found” value [15] was 65.
In the case of `CCc1cccc(C)c1N(C(=O)CCl)[C@@H](C)COC` [B.134, S-metolachlor], the “herbicidal activity against ABUTH found” value ([1]; applied alone at 250 g/ha a.i.) is reported as 40, the “herbicidal activity against ALOMY found” value ([2]; applied alone at 250 g/ha a.i.) is reported as 0 and the “herbicidal activity against ALOMY found” value ([2]; applied alone at 500 g/ha a.i.) is reported as 20. For the same compound, the “herbicidal activity against AMBEL found” value ([3]; applied alone at 250 g/ha a.i.) was 25, the “herbicidal activity against AMBEL found” value ([3]; applied alone at 500 g/ha a.i.) was 65 and the “herbicidal activity against ERICA found” value ([8]; applied alone at 250 g/ha a.i.) was 25. The “herbicidal activity against ERICA found” value ([8]; applied alone at 500 g/ha a.i.) was 35, the “herbicidal activity against GALAP found” value ([12]; applied alone at 250 g/ha a.i.) was 45 and the “herbicidal activity against GERDI found” value ([9]; applied alone at 500 g/ha a.i.) was 30. For the same compound, the “herbicidal activity against KCHSC found” value ([13]; applied alone at 500 g/ha a.i.) was 30, the “herbicidal activity against POLCO found” value ([7]; applied alone at 250 g/ha a.i.) was 35 and the “herbicidal activity against POLCO found” value ([7]; applied alone at 500 g/ha a.i.) was 60. The “herbicidal activity against VIOAR found” value ([10]; applied alone at 250 g/ha a.i.) was 0 and the “herbicidal activity against VIOAR found” value ([10]; applied alone at 500 g/ha a.i.) was 0.
For `Nc1cc(Cl)nc(C(=O)O)c1Cl` [B.144, aminopyralid], the “herbicidal activity against ABUTH found” value ([1]; single active, 4 g/ha a.i.) was 0, the “herbicidal activity against AMBEL found” value ([3]; single active, 8 g/ha a.i.) was 75 and the “herbicidal activity against APESV found” value ([4]; 4 g/ha a.i.) was 0. The “herbicidal activity against KCHSC found” value ([13]; single active, 4 g/ha a.i.) was 0, the “herbicidal activity against KCHSC found” value ([13]; single active, 8 g/ha a.i.) was 0 and the “herbicidal activity against POLCO found” value ([7]; single active, 4 g/ha a.i.) was 98. The “herbicidal activity against POLCO found” value ([7]; single active, 8 g/ha a.i.) was 98 and the “herbicidal activity against VIOLA found” value ([10]; single active, 4 g/ha a.i.) was 0.
In the case of `Cc1ccc2c(c1)[C@H](Nc1nc(N)nc(C(C)F)n1)[C@@H](C)C2` (stereo partly shown) [B.178, indaziflam], the “herbicidal activity against ABUTH found” value ([1]; single active, 6 g/ha a.i.) is reported as 60, the “herbicidal activity against AMBEL found” value ([3]; single active, 6 g/ha a.i.) is reported as 70 and the “herbicidal activity against APESV found” value ([4]; 3 g/ha a.i.) is reported as 40. For the same compound, the “herbicidal activity against ERICA found” value ([8]; single active, 3 g/ha a.i.) was 15, the “herbicidal activity against ERICA found” value ([8]; single active, 6 g/ha a.i.) was 60 and the “herbicidal activity against GALAP found” value ([12]; single active, 3 g/ha a.i.) was 65. The “herbicidal activity against GALAP found” value ([12]; single active, 6 g/ha a.i.) was 60, the “herbicidal activity against GERDI found” value ([9]; single active, 3 g/ha a.i.) was 55 and the “herbicidal activity against GERDI found” value ([9]; single active, 6 g/ha a.i.) was 55. The “herbicidal activity against KCHSC found” value ([13]; single active, 3 g/ha a.i.) was 15 and the “herbicidal activity against MATCH found” value ([6]; single active, 3 g/ha a.i.) was 35.

From patent publication US10881110B2, “Herbicidal compositions comprising isoxazolo[5,4-b]pyridines” (BASF SE, priority 2014, dated 2021)
